Our source for the IC50 and inhibition values is ChEMBL document CHEMBL4024791, “Identification of Morpholino-2H-pyrido[3,2-b][1,4]oxazin-3(4H)-ones as Nonsteroidal Mineralocorticoid Antagonists” (J Med Chem, 2018).

In one data set the target is T1, Progesterone receptor (Homo sapiens, UniProt P06401).
T1 sequence (P06401 whole entry): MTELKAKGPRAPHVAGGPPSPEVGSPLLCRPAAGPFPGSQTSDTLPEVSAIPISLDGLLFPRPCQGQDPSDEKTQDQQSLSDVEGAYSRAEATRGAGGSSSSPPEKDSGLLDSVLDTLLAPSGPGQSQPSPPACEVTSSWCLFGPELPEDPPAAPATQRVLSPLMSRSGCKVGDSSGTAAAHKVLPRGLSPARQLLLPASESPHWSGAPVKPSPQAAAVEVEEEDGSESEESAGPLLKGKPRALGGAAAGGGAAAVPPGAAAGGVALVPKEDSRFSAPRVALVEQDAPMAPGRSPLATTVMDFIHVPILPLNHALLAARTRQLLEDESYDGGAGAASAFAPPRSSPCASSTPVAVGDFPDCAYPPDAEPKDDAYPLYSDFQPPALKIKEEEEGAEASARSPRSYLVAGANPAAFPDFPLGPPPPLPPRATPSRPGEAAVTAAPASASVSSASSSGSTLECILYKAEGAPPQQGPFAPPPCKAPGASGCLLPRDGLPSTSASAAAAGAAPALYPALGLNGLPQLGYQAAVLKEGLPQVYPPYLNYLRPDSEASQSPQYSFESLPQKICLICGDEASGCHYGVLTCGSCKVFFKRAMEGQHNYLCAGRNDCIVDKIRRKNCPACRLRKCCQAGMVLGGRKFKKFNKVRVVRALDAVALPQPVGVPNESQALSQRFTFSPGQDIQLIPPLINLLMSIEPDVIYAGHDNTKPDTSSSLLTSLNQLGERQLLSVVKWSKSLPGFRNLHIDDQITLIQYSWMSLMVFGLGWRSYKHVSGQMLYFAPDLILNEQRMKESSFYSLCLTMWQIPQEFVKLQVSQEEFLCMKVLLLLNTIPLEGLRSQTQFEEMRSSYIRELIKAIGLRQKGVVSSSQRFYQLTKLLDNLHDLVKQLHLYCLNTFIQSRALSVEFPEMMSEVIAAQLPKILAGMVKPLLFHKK
Nature of the data set: Antagonist activity at PR (unknown origin) by Gal4-based cellular assay.

Another data set has as its target T2, CYP1A2 (Homo sapiens, UniProt P05177).
T2 sequence (P05177 whole entry): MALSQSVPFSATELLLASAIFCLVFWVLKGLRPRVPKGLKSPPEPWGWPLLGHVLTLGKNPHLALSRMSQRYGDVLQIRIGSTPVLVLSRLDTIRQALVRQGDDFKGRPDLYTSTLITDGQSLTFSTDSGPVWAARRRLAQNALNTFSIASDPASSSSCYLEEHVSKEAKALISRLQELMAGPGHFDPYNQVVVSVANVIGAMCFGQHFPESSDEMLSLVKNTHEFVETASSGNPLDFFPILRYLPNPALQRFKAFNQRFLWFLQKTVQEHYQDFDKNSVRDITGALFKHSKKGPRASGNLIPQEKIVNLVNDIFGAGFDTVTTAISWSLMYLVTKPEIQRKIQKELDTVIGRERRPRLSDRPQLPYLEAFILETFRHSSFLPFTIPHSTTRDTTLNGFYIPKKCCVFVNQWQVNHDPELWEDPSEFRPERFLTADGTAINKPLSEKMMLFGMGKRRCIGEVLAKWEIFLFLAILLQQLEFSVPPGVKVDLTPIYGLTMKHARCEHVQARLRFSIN
Kind of data set: Inhibition of CYP1A2 (unknown origin) at 3 uM. Format: ADME.

For the next data set, the target named is T3, Glucocorticoid receptor (Homo sapiens, UniProt P04150).
T3 sequence (P04150 whole entry): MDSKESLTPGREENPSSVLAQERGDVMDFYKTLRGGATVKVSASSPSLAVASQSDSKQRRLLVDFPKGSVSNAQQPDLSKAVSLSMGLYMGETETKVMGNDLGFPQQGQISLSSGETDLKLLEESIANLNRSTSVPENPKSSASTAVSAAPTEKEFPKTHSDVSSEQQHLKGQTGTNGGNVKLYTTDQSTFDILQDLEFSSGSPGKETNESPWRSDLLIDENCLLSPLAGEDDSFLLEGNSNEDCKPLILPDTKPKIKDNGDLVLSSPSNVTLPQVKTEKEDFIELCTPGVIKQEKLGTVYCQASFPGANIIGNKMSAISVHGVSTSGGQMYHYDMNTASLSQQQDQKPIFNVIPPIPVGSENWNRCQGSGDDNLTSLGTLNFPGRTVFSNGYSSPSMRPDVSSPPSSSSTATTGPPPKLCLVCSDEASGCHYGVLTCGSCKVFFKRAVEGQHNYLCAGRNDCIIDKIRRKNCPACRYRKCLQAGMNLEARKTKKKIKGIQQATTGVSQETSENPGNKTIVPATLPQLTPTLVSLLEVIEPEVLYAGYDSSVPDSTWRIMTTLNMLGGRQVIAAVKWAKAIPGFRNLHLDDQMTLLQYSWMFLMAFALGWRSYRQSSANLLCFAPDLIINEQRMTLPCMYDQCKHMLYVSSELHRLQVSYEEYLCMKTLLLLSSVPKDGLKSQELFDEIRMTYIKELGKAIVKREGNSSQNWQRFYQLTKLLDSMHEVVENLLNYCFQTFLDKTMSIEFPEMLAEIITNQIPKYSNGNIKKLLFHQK
Kind of data set: Antagonist activity at GR (unknown origin) by Gal4-based cellular assay.

The target of the next data set is CYP3A4 (Homo sapiens, UniProt P08684). Kind of data set: Inhibition of CYP3A4 (unknown origin) at 3 uM. Format: ADME.
CYP3A4, sequence (P08684 whole entry): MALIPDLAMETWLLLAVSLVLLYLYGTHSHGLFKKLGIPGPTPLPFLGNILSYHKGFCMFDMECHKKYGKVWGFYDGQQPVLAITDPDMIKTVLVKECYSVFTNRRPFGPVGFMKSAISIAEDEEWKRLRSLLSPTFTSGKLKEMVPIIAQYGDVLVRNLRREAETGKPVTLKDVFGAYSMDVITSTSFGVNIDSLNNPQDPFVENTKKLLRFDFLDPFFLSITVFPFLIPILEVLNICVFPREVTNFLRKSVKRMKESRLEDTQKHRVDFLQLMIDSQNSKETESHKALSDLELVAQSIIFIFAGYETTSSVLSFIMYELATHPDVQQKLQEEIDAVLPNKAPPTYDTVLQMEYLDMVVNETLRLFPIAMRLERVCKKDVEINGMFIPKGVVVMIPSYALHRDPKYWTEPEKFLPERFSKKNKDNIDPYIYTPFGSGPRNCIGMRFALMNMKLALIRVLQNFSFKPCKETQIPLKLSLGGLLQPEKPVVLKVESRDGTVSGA

Molecules are shown by their SMILES.

As for `O=C1COc2ccc(N3CCOC[C@H]3c3ccccc3)cc2N1`, the IC50 against Progesterone receptor and against Glucocorticoid receptor was more than 10 µM in each case. In addition, the inhibition at 3 µM against CYP1A2 and on CYP3A4 was less than 10% throughout.
For the compound `C[C@@H]1CN(c2ccc3c(n2)NC(=O)CO3)[C@H](c2ccccc2)CO1`, the IC50 on Progesterone receptor and against Glucocorticoid receptor was more than 10 µM each time. Further, the inhibition at 3 µM at CYP1A2 and on CYP3A4 was less than 20% in each case.
